Test results taken from ChEMBL document CHEMBL4342517, “Design, Synthesis, and Mechanism Study of Benzenesulfonamide-Containing Phenylalanine Derivatives as Novel HIV-1 Capsid Inhibitors with Improved Antiviral Activities” (J Med Chem, 2020).
Activity calls are given as the source filed them. The rule behind the calls is not given here.

Assays:
TZM = assay: Cytotoxicity in uninfected human TZM-bl assessed as reduction in cell viability incubated for 1 day by Cyto-tox-Glo cytotoxicity assay; type: cell-based; conditions: 24 h
[1] = tested on: Human immunodeficiency virus 1; assay: Antiviral activity against HIV1 NL4-3 infected in human TZM-bl cells assessed as reduction in virus induced cytopathogenicity incubated for 1 day by luciferase reporter gene assay; type: functional, organism-based; conditions: Human immunodeficiency virus 1, NL4-3, TZM-bl, 24 h
[2] = Stability in human plasma assessed as compound remaining level at 2 uM incubated for 120 mins at 37 degC by LC-MS/MS analysis; type: ADME, cell-free; conditions: 2 h
[3] = tested on: Human immunodeficiency virus 1; assay: Induction of increase in CA/p24 content in HIV1 NL4-3 infected in human TZM-bl cells at 10 uM by ELISA relative to control; type: functional
[4] = tested on: Human immunodeficiency virus 1; assay: Antiviral activity against HIV1 Env-pseudotyped virus in human U87.CD4.CCR5 target cells assessed as reduction in viral infection at late stage; type: functional, organism-based; conditions: Human immunodeficiency virus 1, U87/CD4/CCR5
[5] = tested on: Human immunodeficiency virus 1; assay: Antiviral activity against HIV1 Env-pseudotyped virus in human U87.CD4.CCR5 target cells assessed as reduction in viral infection at early stage; type: functional, organism-based; conditions: Human immunodeficiency virus 1, U87/CD4/CCR5
[6] = molecular target: Structural capsid protein (Human immunodeficiency virus 1) (UniProt Q76129); assay: Induction of HIV1 NL4-3 capsid protein assembly at 50 uM measured every 1 min for 19 mins
MT4 = assay: Cytotoxicity in mock-infected human MT4 assessed as reduction in cell viability incubated for 5 days by MTT assay; type: cell-based; conditions: mt4, 120 h
[7] = human, microsomes
Description: Intrinsic clearance in human liver microsomes in presence of NADPH regenerating system by LC-MS/MS analysis

[8] = tested on: Human immunodeficiency virus 1; assay: Antiviral activity against HIV1 3B infected in human MT4 cells assessed as reduction in virus-induced cell death incubated for 5 days by MTT assay; type: functional, organism-based; conditions: Human immunodeficiency virus 1, 3B, MT4, 120 h
[9] = tested on: Human immunodeficiency virus 2; assay: Antiviral activity against HIV2 ROD infected in human MT4 cells assessed as reduction in virus-induced cell death incubated for 5 days by MTT assay; conditions: Human immunodeficiency virus 2, ISOLATE ROD, MT4, 120 h
[10] = molecular target: Structural capsid protein (Human immunodeficiency virus 1) (UniProt Q76129); assay: Inhibition of HIV1 NL4-3 capsid protein assembly at 50 uM measured every 1 min for 19 mins
[11] = molecular target: T1, Structural capsid protein (Human immunodeficiency virus 1, UniProt Q76129); assay: Binding affinity to HIV1 NL4-3 capsid protein hexamer by SPR analysis
[12] = molecular target: T1, Structural capsid protein; assay: Binding affinity to HIV1 NL4-3 capsid protein monomer by SPR analysis
[13] = human, microsomes; remark: listed apart in the source
Description: Half life in human liver microsomes in presence of NADPH regenerating system by LC-MS/MS analysis

T1 sequence (Q76129 whole entry): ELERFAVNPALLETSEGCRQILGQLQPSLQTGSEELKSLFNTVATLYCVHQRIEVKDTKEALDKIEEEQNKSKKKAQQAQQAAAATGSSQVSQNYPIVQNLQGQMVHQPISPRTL
Structural capsid protein (Human immunodeficiency virus 1), sequence (Q76129 as listed by the source): as the sequence (Q76129 whole entry) above

Row | Structure (SMILES) | CC50 (TZM) | EC50 [1] | further results
1 | COc1ccc(N(C)C(=O)[C@H](Cc2ccccc2)NC(=O)CNS(=O)(=O)c2c(C(C)C)cc(C(C)C)cc2C(C)C)cc1 | > 32.9 µM | 7.9 µM | –
2 | Cc1[nH]c2ccccc2c1CC(=O)N[C@@H](Cc1ccccc1)C(=O)N(C)c1ccccc1 | > 47 µM | – | Stability [2]: 69%; Activity [3]: 40%; IC50 [4]: 0.23 µM; IC50 [5]: 0.056 µM; Activity [6]: Active; CC50 (MT4): 145 µM; CLH [7]: 1080.3 µL/min/mg
3 | COc1ccc(N(C)C(=O)[C@H](Cc2ccccc2)NC(=O)CNS(=O)(=O)c2cccc(N)c2)cc1 | > 40.3 µM | 8.26 µM | –
4 | COc1ccc(N(C)C(=O)[C@H](Cc2ccccc2)NC(=O)CNS(=O)(=O)c2ccc(F)cc2)cc1 | > 40 µM | 6.81 µM | –
5 | COc1ccc(N(C)C(=O)[C@H](Cc2ccccc2)NC(=O)CNS(=O)(=O)c2ccccc2N)cc1 | > 40.3 µM | 9.06 µM | –
6 | COc1ccc(N(C)C(=O)[C@H](Cc2ccccc2)NC(=O)CN2CCN(S(=O)(=O)c3ccc([N+](=O)[O-])cc3)CC2=O)cc1 | > 32.8 µM | 0.3 µM | EC50 [8]: 4.9 µM; CC50 (MT4): 8.89 µM; EC50 [9]: 0.16 µM
7 | COc1ccc(N(C)C(=O)[C@H](Cc2ccccc2)NC(=O)CNS(=O)(=O)c2ccc([N+](=O)[O-])cc2)cc1 | > 38 µM | > 38 µM | –
8 | COc1ccc(N(C)C(=O)[C@H](Cc2ccccc2)NC(=O)CN2CCN(S(=O)(=O)c3ccc(C)cc3)CC2=O)cc1 | > 34.6 µM | 0.5 µM | –
9 | COc1ccc(N(C)C(=O)[C@H](Cc2ccccc2)NC(=O)CN2CCN(S(=O)(=O)c3ccccc3[N+](=O)[O-])CC2=O)cc1 | – | 1 µM | –
10 | COc1ccc(N(C)C(=O)[C@H](Cc2ccccc2)NC(=O)CN2C(=O)N(CC(=O)N[C@@H](Cc3ccccc3)C(=O)N(C)c3ccc(OC)cc3)S(=O)(=O)c3cc(Cl)ccc32)cc1 | > 22.7 µM | 4.77 µM | –
11 | COc1ccc(N(C)C(=O)[C@H](Cc2ccccc2)NC(=O)CN2CCN(S(=O)(=O)c3cccc(F)c3)CC2=O)cc1 | > 34.3 µM | 0.45 µM | –
12 | COc1ccc(N(C)C(=O)[C@H](Cc2ccccc2)NC(=O)CN2CCN(S(=O)(=O)c3cccc([N+](=O)[O-])c3)CC2=O)cc1 | > 32.8 µM | 0.67 µM | –
13 | COc1ccc(N(C)C(=O)[C@H](Cc2ccccc2)NC(=O)CN2C(=O)Nc3ccccc3S2(=O)=O)cc1 | > 38.3 µM | 2.11 µM | inhibition [10]: Active; IC50 [4]: 2.44 µM; IC50 [5]: 1.94 µM; EC50 [8]: 6.07 µM; CC50 (MT4): 130 µM; EC50 [9]: 2.72 µM
14 | COc1ccc(N(C)C(=O)[C@H](Cc2ccccc2)NC(=O)CN2CCN(S(=O)(=O)c3ccccc3F)CC2=O)cc1 | > 34.3 µM | 0.48 µM | –
15 | COc1ccc(N(C)C(=O)[C@H](Cc2ccccc2)NC(=O)CN2CCN(S(=O)(=O)c3ccc(OC)cc3)CC2=O)cc1 | > 33.6 µM | 0.64 µM | –
16 | COc1ccc(N(C)C(=O)[C@H](Cc2ccccc2)NC(=O)CNS(=O)(=O)c2ccccc2)cc1 | > 41.5 µM | 6.23 µM | –
17 | COc1ccc(N(C)C(=O)[C@H](Cc2ccccc2)NC(=O)CN2CCN(S(=O)(=O)c3ccccc3)CC2=O)cc1 | > 35.4 µM | 0.37 µM | EC50 [8]: 0.71 µM; CC50 (MT4): 109 µM; EC50 [9]: 0.032 µM
18 | COc1ccc(N(C)C(=O)[C@H](Cc2ccccc2)NC(=O)CNS(=O)(=O)c2ccc(OC)cc2)cc1 | > 39.1 µM | 10.4 µM | –
19 | COc1ccc(N(C)C(=O)[C@H](Cc2ccccc2)NC(=O)CNS(=O)(=O)c2ccccc2[N+](=O)[O-])cc1 | > 38 µM | 8.74 µM | –

Row | Structure (SMILES) | CC50 (TZM) | EC50 [1] | further results
20 | COc1ccc(N(C)C(=O)[C@H](Cc2ccccc2)NC(=O)CNS(=O)(=O)c2cccc(F)c2)cc1 | > 40 µM | 5.61 µM | inhibition [10]: Active; IC50 [4]: 4.2 µM; IC50 [5]: 8.22 µM; EC50 [8]: 24.5 µM; CC50 (MT4): 136 µM; EC50 [9]: 20.1 µM
21 | COc1ccc(N(C)C(=O)[C@H](Cc2ccccc2)NC(=O)CNS(=O)(=O)c2ccc(C)cc2)cc1 | > 40.4 µM | 6.26 µM | –
22 | COc1ccc(N(C)C(=O)[C@H](Cc2ccccc2)NC(=O)CNS(=O)(=O)c2ccccc2F)cc1 | > 40 µM | 10.8 µM | –
23 | COc1ccc(N(C)C(=O)[C@H](Cc2ccccc2)NC(=O)CNS(=O)(=O)c2ccc(N)cc2)cc1 | > 40.3 µM | 6.65 µM | –
24 | COc1ccc(N(C)C(=O)[C@H](Cc2ccccc2)NC(=O)CN2C(=O)Nc3ccc(C)cc3S2(=O)=O)cc1 | > 37.3 µM | 5.96 µM | –
25 | COc1ccc(N(C)C(=O)[C@H](Cc2ccccc2)NC(=O)CNS(=O)(=O)c2ccc(Cl)cc2)cc1 | > 38.8 µM | 9.88 µM | –
26 | COc1ccc(N(C)C(=O)[C@H](Cc2ccccc2)NC(=O)CN2CCN(S(=O)(=O)c3ccc(Br)cc3)CC2=O)cc1 | > 31.1 µM | 0.36 µM | –
27 | COc1ccc(N(C)C(=O)[C@H](Cc2ccccc2)NC(=O)CN2CCN(S(=O)(=O)c3ccc(Cl)cc3)CC2=O)cc1 | > 33.4 µM | 1.05 µM | –
28 | COc1ccc(N(C)C(=O)[C@H](Cc2ccccc2)NC(=O)CN2C(=O)N(CC(=O)N[C@@H](Cc3ccccc3)C(=O)N(C)c3ccc(OC)cc3)S(=O)(=O)c3cc(F)ccc32)cc1 | > 23.1 µM | 3.82 µM | Kd [11]: 1.3 µM; Kd [12]: 0.2 µM
29 | COc1ccc(N(C)C(=O)[C@H](Cc2ccccc2)NC(=O)CNS(=O)(=O)c2c(C)cc(C)cc2C)cc1 | > 38.2 µM | 10.7 µM | –
30 | O=C(O)Cc1ccccc1Nc1c(Cl)cccc1Cl [DICLOFENAC] | – | – | CLH [7]: 93.6 µL/min/mg; t1/2 [13]: 14.8 min
31 | COc1ccc(N(C)C(=O)[C@H](Cc2ccccc2)NC(=O)CN2CCN(S(=O)(=O)c3ccccc3N)CC2=O)cc1 | > 34.5 µM | 0.54 µM | –
32 | COc1ccc(N(C)C(=O)[C@H](Cc2ccccc2)NC(=O)CN2C(=O)N(CC(=O)N[C@@H](Cc3ccccc3)C(=O)N(C)c3ccc(OC)cc3)S(=O)(=O)c3cc(Br)ccc32)cc1 | > 21.6 µM | 5.62 µM | –
33 | COc1ccc(N(C)C(=O)[C@H](Cc2ccccc2)NC(=O)CNS(=O)(=O)c2cccc([N+](=O)[O-])c2)cc1 | > 38 µM | 8.93 µM | –
34 | COc1ccc(N(C)C(=O)[C@H](Cc2ccccc2)NC(=O)CNS(=O)(=O)c2ccc(Br)cc2)cc1 | > 35.7 µM | 8.21 µM | –
35 | COc1ccc(N(C)C(=O)[C@H](Cc2ccccc2)NC(=O)CN2CCN(S(=O)(=O)c3ccc(F)cc3)CC2=O)cc1 | 25.7 µM | 1.06 µM | –
36 | COc1ccc(N(C)C(=O)[C@H](Cc2ccccc2)NC(=O)CNS(=O)(=O)c2cc(C)cc(C)c2)cc1 | > 39.2 µM | 9.22 µM | –
37 | COc1ccc(N(C)C(=O)[C@H](Cc2ccccc2)NC(=O)CN2C(=O)Nc3ccc(OC)cc3S2(=O)=O)cc1 | > 36.2 µM | 4.89 µM | –
38 | COc1ccc(N(C)C(=O)[C@H](Cc2ccccc2)NC(=O)CN2CCN(S(=O)(=O)c3cccc(N)c3)CC2=O)cc1 | > 34.5 µM | 0.33 µM | Kd [11]: 3.02 µM; Kd [12]: 10 µM
